Holding throughout (assay): biochemical
Holding throughout (parameters): species or system HEK293/K-562/placenta mixed human extract; Kinobeads chemoproteomic competition binding, quantified by TMT LC-MS/MS, dose response up to 20 uM

Test [1] addresses TTK (Homo sapiens, UniProt P33981).
The target in test [2] is CSNK2A1 (Homo sapiens, UniProt P68400).
Test [3] deals with CIT (Homo sapiens, UniProt O14578).
Test [4] addresses EPHA3 (Homo sapiens, UniProt P29320).
Test [5] deals with SYK (Homo sapiens, UniProt P43405).
Test [6] deals with CDK10 (Homo sapiens, UniProt Q15131).
The target in test [7] is STK17B (Homo sapiens, UniProt O94768).
Test [8] has as its target CSK (Homo sapiens, UniProt P41240).
For test [9], the target named is TYRO3 (Homo sapiens, UniProt Q06418).
For test [10], the target named is CAMK2B (Homo sapiens, UniProt Q13554).
In test [11] the target is FN3K (Homo sapiens, UniProt Q9H479).
Sequence of FN3K (Q9H479 whole entry): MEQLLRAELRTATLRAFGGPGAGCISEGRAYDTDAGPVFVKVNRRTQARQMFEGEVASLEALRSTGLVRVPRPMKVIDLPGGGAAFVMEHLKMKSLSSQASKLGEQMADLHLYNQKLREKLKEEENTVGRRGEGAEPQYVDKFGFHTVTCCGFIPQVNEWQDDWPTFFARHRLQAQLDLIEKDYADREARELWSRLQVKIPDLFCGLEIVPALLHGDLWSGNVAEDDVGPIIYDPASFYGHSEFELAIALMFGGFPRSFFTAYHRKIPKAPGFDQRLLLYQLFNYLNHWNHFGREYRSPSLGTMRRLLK
In test [12] the target is TNK1 (Homo sapiens, UniProt Q13470).
Sequence of TNK1 (Q13470 whole entry): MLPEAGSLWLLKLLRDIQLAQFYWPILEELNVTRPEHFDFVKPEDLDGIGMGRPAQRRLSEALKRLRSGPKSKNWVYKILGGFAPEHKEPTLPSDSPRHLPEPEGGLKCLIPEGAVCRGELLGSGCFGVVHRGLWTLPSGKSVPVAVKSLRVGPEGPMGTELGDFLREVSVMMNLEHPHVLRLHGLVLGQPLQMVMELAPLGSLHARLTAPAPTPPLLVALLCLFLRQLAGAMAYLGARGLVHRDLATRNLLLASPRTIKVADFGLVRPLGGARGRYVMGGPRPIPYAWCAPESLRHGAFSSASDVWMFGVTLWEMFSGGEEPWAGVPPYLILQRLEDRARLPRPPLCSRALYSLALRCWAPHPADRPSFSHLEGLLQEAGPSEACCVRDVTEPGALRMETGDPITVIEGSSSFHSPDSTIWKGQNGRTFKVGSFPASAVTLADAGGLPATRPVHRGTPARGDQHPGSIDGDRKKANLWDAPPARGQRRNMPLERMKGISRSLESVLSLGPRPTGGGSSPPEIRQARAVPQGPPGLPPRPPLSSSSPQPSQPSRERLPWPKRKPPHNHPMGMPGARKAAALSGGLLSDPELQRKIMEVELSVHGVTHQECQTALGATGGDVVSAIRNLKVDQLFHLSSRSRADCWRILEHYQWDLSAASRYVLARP
Test [13] has as its target PRKAB2 (Homo sapiens, UniProt O43741).
The target in test [14] is WEE1 (Homo sapiens, UniProt P30291).
Sequence of WEE1 (P30291 whole entry): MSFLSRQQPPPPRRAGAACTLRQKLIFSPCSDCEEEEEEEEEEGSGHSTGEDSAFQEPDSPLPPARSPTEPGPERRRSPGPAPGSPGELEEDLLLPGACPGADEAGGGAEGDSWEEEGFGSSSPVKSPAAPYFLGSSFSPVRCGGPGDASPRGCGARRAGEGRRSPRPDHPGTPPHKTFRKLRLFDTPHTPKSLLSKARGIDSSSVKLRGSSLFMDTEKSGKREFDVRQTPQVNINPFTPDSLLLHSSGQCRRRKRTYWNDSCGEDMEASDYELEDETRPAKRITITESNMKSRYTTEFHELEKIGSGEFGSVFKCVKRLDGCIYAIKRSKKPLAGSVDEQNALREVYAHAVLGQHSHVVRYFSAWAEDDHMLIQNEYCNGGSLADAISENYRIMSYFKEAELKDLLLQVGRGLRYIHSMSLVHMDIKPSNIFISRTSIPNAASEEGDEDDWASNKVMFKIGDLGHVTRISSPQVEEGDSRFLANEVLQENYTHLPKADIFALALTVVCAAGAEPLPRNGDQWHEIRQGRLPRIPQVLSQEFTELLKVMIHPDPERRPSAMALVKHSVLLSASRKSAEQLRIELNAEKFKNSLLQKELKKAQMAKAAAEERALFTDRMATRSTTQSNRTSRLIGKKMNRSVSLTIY
Test [15] deals with CHEK2 (Homo sapiens, UniProt O96017).
Sequence of CHEK2 (O96017 whole entry): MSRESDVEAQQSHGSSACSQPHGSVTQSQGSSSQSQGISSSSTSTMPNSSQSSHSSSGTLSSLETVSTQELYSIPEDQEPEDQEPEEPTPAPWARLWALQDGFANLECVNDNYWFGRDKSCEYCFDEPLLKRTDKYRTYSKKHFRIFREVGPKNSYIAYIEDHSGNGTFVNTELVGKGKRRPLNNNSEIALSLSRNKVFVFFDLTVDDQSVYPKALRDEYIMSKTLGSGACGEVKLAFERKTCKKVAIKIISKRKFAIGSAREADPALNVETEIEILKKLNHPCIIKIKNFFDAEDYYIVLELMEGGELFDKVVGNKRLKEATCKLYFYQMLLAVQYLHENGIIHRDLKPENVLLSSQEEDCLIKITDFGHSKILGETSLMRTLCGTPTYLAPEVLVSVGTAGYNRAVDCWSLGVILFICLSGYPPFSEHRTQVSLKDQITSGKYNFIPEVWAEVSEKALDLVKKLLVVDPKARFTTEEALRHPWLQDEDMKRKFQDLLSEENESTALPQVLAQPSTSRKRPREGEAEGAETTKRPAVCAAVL
Test [16] addresses IRAK1 (Homo sapiens, UniProt P51617).
Test [17] addresses PRKCB (Homo sapiens, UniProt P05771).
Test [18] has as its target PRKAB1 (Homo sapiens, UniProt Q9Y478).
The target of test [19] is RPS6KA4 (Homo sapiens, UniProt O75676).
Sequence of RPS6KA4 (O75676 whole entry): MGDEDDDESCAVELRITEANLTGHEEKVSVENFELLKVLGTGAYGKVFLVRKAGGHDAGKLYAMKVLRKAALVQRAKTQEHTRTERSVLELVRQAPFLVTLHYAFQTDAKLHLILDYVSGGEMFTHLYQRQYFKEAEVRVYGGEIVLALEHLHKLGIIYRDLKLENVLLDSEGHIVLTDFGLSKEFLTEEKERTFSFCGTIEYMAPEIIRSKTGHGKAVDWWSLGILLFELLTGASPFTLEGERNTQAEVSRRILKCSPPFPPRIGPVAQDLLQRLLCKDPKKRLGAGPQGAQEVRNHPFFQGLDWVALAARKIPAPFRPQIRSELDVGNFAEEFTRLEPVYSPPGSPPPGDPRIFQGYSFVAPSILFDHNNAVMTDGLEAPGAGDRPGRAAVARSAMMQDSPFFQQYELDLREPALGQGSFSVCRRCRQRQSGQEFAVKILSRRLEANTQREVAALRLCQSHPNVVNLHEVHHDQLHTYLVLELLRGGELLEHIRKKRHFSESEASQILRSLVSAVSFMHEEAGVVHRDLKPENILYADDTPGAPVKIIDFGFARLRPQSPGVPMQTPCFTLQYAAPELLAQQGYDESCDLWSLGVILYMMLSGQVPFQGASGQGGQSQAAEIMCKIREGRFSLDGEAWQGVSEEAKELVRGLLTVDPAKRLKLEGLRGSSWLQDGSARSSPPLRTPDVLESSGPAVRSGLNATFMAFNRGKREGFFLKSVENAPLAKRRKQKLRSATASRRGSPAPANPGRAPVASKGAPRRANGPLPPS
Test [20] concerns the target TGFBR1 (Homo sapiens, UniProt P36897).
Test [21] has as its target EPHB3 (Homo sapiens, UniProt P54753).

For orientation: IC50 means the concentration that inhibits the measured activity by half. A lower IC50 goes with higher potency.

Sequence of PRKAB1 (Q9Y478 whole entry): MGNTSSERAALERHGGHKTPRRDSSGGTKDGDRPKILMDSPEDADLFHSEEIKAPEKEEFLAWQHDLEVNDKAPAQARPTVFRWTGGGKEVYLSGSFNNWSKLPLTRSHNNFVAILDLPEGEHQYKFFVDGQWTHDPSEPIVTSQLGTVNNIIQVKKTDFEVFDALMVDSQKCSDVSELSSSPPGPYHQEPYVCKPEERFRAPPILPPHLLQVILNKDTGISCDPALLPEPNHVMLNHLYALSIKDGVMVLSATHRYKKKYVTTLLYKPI
Sequence of TGFBR1 (P36897 whole entry): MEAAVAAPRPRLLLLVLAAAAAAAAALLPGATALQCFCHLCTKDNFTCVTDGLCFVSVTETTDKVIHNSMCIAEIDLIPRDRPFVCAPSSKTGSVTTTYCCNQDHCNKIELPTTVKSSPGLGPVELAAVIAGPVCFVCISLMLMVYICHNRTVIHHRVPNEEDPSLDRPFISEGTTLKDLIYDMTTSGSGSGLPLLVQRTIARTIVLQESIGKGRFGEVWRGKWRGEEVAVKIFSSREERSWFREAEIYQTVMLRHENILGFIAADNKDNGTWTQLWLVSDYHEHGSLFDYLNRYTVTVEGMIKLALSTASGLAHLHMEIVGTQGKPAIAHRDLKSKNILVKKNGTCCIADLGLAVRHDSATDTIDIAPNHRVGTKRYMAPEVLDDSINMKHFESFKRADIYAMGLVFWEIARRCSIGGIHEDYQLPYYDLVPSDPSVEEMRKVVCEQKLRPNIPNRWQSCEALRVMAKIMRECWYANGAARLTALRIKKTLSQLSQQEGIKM
Sequence of EPHA3 (P29320 whole entry): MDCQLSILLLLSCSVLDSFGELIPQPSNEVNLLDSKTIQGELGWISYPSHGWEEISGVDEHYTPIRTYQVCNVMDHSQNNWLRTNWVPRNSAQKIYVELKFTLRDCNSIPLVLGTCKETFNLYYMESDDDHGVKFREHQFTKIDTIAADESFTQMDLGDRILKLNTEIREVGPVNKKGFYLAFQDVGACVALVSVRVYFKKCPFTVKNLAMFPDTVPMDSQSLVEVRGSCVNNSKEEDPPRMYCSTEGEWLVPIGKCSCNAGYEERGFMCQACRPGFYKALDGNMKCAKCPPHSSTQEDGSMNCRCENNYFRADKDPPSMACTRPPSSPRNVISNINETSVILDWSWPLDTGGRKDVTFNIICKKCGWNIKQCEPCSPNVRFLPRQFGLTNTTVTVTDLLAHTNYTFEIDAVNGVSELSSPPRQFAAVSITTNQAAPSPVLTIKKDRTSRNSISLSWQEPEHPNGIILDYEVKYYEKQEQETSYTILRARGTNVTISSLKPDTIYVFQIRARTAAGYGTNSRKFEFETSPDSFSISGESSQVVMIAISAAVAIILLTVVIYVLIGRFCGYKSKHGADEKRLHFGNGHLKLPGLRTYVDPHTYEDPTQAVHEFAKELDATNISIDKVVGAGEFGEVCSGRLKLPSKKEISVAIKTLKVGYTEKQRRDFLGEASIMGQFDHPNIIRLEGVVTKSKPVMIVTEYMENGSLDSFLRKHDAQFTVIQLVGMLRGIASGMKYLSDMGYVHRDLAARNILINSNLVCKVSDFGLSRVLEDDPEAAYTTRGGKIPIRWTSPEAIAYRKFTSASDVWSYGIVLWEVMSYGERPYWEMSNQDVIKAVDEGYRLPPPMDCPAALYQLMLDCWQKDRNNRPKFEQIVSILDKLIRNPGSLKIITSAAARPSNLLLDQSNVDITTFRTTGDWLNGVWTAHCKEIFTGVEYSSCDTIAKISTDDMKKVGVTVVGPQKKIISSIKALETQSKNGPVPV
Sequence of PRKAB2 (O43741 whole entry): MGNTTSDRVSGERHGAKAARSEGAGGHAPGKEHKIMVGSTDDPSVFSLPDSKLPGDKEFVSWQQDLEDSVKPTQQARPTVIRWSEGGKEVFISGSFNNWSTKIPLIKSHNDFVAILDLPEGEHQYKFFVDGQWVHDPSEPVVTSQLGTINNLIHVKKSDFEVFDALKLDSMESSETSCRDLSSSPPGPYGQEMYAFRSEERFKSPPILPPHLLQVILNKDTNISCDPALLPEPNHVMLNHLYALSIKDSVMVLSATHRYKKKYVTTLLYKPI

For the molecule `COc1ccccc1-c1n[nH]c2nc(N[C@H]3CC[C@H](NS(=O)(=O)CCC(F)(F)F)CC3)nc(OC)c12` [compound 31, 3,3,3-Trifluoro-N-(trans-4-((4-methoxy-3-(2-methoxyphenyl)-1H-pyrazolo[3,4-d]pyrimidin-6-yl)amino)cyclohexyl)propane-1-sulfonamide], the IC50 in test [1] was not below 20 µM; in [2], not below 20 µM; in test [3] it was not below 20 µM; in test [4] it was not below 20 µM; in [5], not below 20 µM; in test [6] it was 2.6 µM. The IC50 in [7], in test [8], in [9], in test [10], in test [11] and in test [12] was not below 20 µM in each case. The IC50 in [13], in test [14], in test [15], in test [16], in [17] and in [18] was not below 20 µM each time. Also, the IC50 in [19], in [20] and in test [21] was not below 20 µM in each case.

The values above are taken from paper PMC6407917, “Identification of GSK3186899/DDD853651 as a Preclinical Development Candidate for the Treatment of Visceral Leishmaniasis” (Journal of Medicinal Chemistry, 2018).
